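In this assay, cells in 96-well plates receive the compound at five concentrations for 48 hours. Endpoints are linearly interpolated between the surrounding concentrations. GI50: concentration for 50% inhibition of growth.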 Active and inactive are the calls of the source. No stated cut-off is given here; in the data, active = GI50 up to about 1.1 µM and inactive = higher.
Key:
Test in all cases: NCI tumour cell line growth inhibition, 48 h
SK-MEL-5 = system: SK-MEL-5
SN12C = system: SN12C
SF-268 = system: SF-268
T47D = system: T47D
NCI-H23 = system: NCI-H23
LOX IMVI = system: LOX IMVI
LXFL 529 = system: LXFL 529
MDA-N = system: MDA-N
DLD-1 = system: DLD-1
Hs-578T = system: Hs-578T
CAKI-1 = system: CAKI-1
786-0 = system: 786-0
HCT-15 = system: HCT-15
KM12 = system: KM12
MDA-MB-435 = system: MDA-MB-435
CCRF-CEM = system: CCRF-CEM
M19-MEL = system: M19-MEL
OVCAR-8 = system: OVCAR-8
NCI/ADR-RES = system: NCI/ADR-RES
UACC-62 = system: UACC-62

Structure (SMILES)	GI50 (SK-MEL-5)	GI50 (SN12C)	GI50 (SF-268)	GI50 (T47D)	GI50 (NCI-H23)	GI50 (LOX IMVI)	GI50 (LXFL 529)	GI50 (MDA-N)	GI50 (DLD-1)	GI50 (Hs-578T)	GI50 (CAKI-1)	GI50 (786-0)	GI50 (HCT-15) [µM]	GI50 (KM12)	GI50 (MDA-MB-435)	GI50 (CCRF-CEM)	GI50 (M19-MEL)	GI50 (OVCAR-8)	GI50 (NCI/ADR-RES)	GI50 (UACC-62)
BrC(Br)=C1C(=C(Br)Br)C(Br)C1Br (centres undefined)	0.826 µM (active)	0.716 µM (active)	0.274 µM (active)	1.76 µM (inactive)	0.284 µM (active)	0.0706 µM (active)	0.439 µM (active)	0.368 µM (active)	0.573 µM (active)	2.51 µM (inactive)	0.132 µM (active)	0.163 µM (active)	0.301	0.61 µM (active)	0.927 µM (active)	0.0989 µM (active)	0.63 µM (active)	0.55 µM (active)	0.733 µM (active)	0.429 µM (active)
Cc1cc(N(CCC#N)CCC#N)ccc1/C=C1N=C(/C=C\c2ccccc2)N(c2ccc(C(=O)O)cc2)C\1=O	> 100 µM (inactive)	> 100 µM (inactive)	> 100 µM (inactive)		> 100 µM (inactive)	> 100 µM (inactive)	> 100 µM (inactive)		> 100 µM (inactive)		> 100 µM (inactive)	> 100 µM (inactive)	> 100	> 100 µM (inactive)		> 100 µM (inactive)	> 100 µM (inactive)	> 100 µM (inactive)		> 100 µM (inactive)
CC(=O)N(C)c1ccc2ncccc2c1[N+](=O)[O-]	> 100 µM (inactive)	> 100 µM (inactive)	> 100 µM (inactive)		> 100 µM (inactive)	> 100 µM (inactive)	> 100 µM (inactive)		> 100 µM (inactive)		> 100 µM (inactive)	> 100 µM (inactive)	> 100	> 100 µM (inactive)		> 100 µM (inactive)	> 100 µM (inactive)	> 100 µM (inactive)		> 100 µM (inactive)
C=C1CC2CC[C@@]34C[C@H]5O[C@@H]6C(O[C@H]7CC[C@H](CC(=O)OC8[C@H](C)C9OC%10C[C@]%11(C[C@@H]%12O[C@]%13(C[C@H](C)[C@@H]%14O[C@H]([C@H](O)C[C@H](O)CO)C[C@@H]%14O%13)C[C@H](C)[C@@H]%12O%11)OC%10CC9O[C@H]8C[C@H]8O[C@H](CC[C@@H]1O2)C[C@@H](C)C8=C)O[C@H]7[C@@H]6O3)[C@@H]5O4 (some centres undefined)	0.00024 µM (active)	0.00405 µM (active)	0.00376 µM (active)	2.65 µM (inactive)	0.000605 µM (active)	0.000597 µM (active)	0.00129 µM (active)	0.0001 µM (active)	0.0018 µM (active)		0.000491 µM (active)	0.00246 µM (active)	0.000935	0.00046 µM (active)	0.0001 µM (active)	0.000588 µM (active)	0.000618 µM (active)	0.00222 µM (active)	0.000516 µM (active)	0.000469 µM (active)
COP(=O)(CC(=O)C1OC(C)(C)OC1C(O)COCc1ccccc1)OC (centres undefined)	46.2 µM (inactive)	> 100 µM (inactive)	> 100 µM (inactive)		> 100 µM (inactive)	> 100 µM (inactive)	> 100 µM (inactive)		> 100 µM (inactive)		> 100 µM (inactive)	> 100 µM (inactive)	> 100	> 100 µM (inactive)		> 100 µM (inactive)	> 100 µM (inactive)	> 100 µM (inactive)		> 100 µM (inactive)
COC(=O)/C(=N\NC(=O)c1ccccc1O)C(C#N)c1ccccc1 (centres undefined)	22 µM (inactive)	37.4 µM (inactive)	23.5 µM (inactive)		20.1 µM (inactive)	19.4 µM (inactive)	21.5 µM (inactive)		24 µM (inactive)		27.7 µM (inactive)	17.4 µM (inactive)	17.4	24.1 µM (inactive)		19.4 µM (inactive)	30 µM (inactive)	23.7 µM (inactive)		12.1 µM (inactive)
COc1ccc(/C=C/c2cc(OC)c(OC)c(OC)c2)cc1	3.68 µM (inactive)	13.2 µM (inactive)	15.1 µM (inactive)		5.81 µM (inactive)	5.52 µM (inactive)	31.8 µM (inactive)		0.897 µM (active)		3.53 µM (inactive)	11.1 µM (inactive)	2.57	3.3 µM (inactive)		1.66 µM (inactive)	9.95 µM (inactive)	15.8 µM (inactive)		3.25 µM (inactive)
Cc1ccc(NC(=O)C(=O)Cc2cc[n+]([O-])cc2)cc1	> 100 µM (inactive)	> 100 µM (inactive)	> 100 µM (inactive)		> 100 µM (inactive)	> 100 µM (inactive)	> 100 µM (inactive)		> 100 µM (inactive)		> 100 µM (inactive)	> 100 µM (inactive)	> 100	> 100 µM (inactive)		> 100 µM (inactive)	> 100 µM (inactive)	> 100 µM (inactive)		> 100 µM (inactive)
CCCN(CCCC(NC(C)=O)C(=O)NCc1ccccc1)C(=O)N(C)N=O (centres undefined)	> 100 µM (inactive)	> 100 µM (inactive)	> 100 µM (inactive)		> 100 µM (inactive)	> 100 µM (inactive)	> 100 µM (inactive)		> 100 µM (inactive)		> 100 µM (inactive)	> 100 µM (inactive)	> 100	> 100 µM (inactive)		> 100 µM (inactive)	> 100 µM (inactive)	> 100 µM (inactive)		> 100 µM (inactive)

From ChEMBL document CHEMBL1201862, “PubChem BioAssay data set” (2004)
